Results from patent US9284576B2, “In vitro hepatic differentiation” (Cambride Enterprise Limited, priority 2010, dated 2016).
Peptide text beside a SMILES is read from it. * marks the point of attachment. Cbz = O=C(OCc1ccccc1)*

Key:
[1] = system: α1-antitrypsin deficient dhIPSC derived hepatocytes; assay: proteosome blocking assay with ELISA for α1-antitrypsin; type: cell-based, human; details: MG132 added to medium overnight (16 hours), A1ATD vs control hIPSC derived hepatocytes, FIG. 10
Procedure: High binding surface COSTAR 96-well plates (Corning, N.Y., USA) were coated overnight with affinity-purified rabbit polyclonal antibodies against α1-antitrypsin (Abcam 31657, Cambridge, UK) at 2 μg/ml in carbonate/bicarbonate buffer (Na2CO3/NAHCO3, pH 9.5). After washing (0.9% w/v NaCl, 0.05% v/v Tween 20), the plates were blocked for two hours in blocking buffer (PBS, 0.25% w/v BSA, 0.05% v/v Tween 20). Samples (culture medium or cells lysed in 50 μl of Nonidet lysis buffer (150 mM NaCl, 50 mM Tris-Cl, pH 7.5, 1% (v/v) Nonidet P-40), and standards (plasma purified M or Z α1-antitrypsin) were diluted in blocking buffer and 50 μl added to each well then incubated for two hours. After washing, the wells were incubated with either 9C5 or 2C1 monoclonal antibodies (1 μg/ml diluted in blocking buffer), and incubated for two hours. Bound monoclonal antibodies were detected with rabbit anti-mouse IgG HRP-labelled antibody (Sigma Aldrich, Haverhill, UK, 1:20,000) for one hour. The reaction was developed with TMB liquid substrate (Sigma Aldrich, Haverhill, UK) for 10 minutes in the dark and the reaction was stopped with 1 M H2SO4. Absorbance was read at 450 nm on a Thermo-max microplate reader (Molecular Devices, Sunnyvale, Calif., U.S.A.). […]

[2] = system: dhIPSC derived hepatocytes; assay: Metabolic enzyme response to glucagon stimulation (qRT-PCR of PEPCK, G6P, IGFBP1); type: cell-based, human; details: 100 nM glucagon hydrochloride; 0, 1, 2 and 3 hours after stimulation; FIG. 16
Procedure: dhIPSC derived hepatocytes were incubated for six hours in serum-free, high-glucose DMEM supplemented with 2 mM L-glutamine, […] penicillin, 100 ug/ml streptomycin, and 0.5% Bovine Serum Albumin (all from Sigma-Aldrich). Cells were stimulated with 100 nM glucagon […] hydrochloride (Novo Nordisk, Bagsvard, Denmark) or PBS (Sigma-Aldrich) as a negative control. Total RNA was harvested using the RNeasy Kit (Qiagen, Hilden, Germany) at 0, 1, 2 or 3 hours after stimulation and purified as per manufacturer's guidelines. Reverse transcription was performed on 1 ug RNA in a 25 μl reaction mixture containing 2000 Moloney Murine Leukemia Virus Reverse Transcriptase, 500 ng random primers and 0.5 mM deoxynucleotide triphosphates (all from Promega, Wis., Ma) as per manufacturer's guidelines. cDNA was subjected to real-time quantitative PCR on an ABI7900 detection system (Applied Biosystems, Foster City, Calif.) using Tagman PCR Mastermix (Applied Biosystems) and gene-specific forward and reverse primers and fluorogenic probes. All results were normalised to human 36B4 as a reference gene. Primers and probes for PEPCK (Hs00159918—1), G6P (Hs00609178—1) and IGFBP1 (Hs00426285 ml) were purchased as premade stocks from Applied Biosystems. Oligonucleotides for 36B4 were designed in-house and synthesised by Sigma-Aldrich (Forward, 5′-[…]-3′; Reverse, 5′-[…]-3′; Probe, 5′-[JOEE][…][TAMRA]-3′).

Row | Molecule | intracellular α1-antitrypsin polymers after proteasome inhibition [1] | expression of glucagon-responsive genes PEPCK, G6P and IGFBP1 [2]
1 | CC(C)C[C@@H](C=O)NC(=O)[C@H](CC(C)C)NC(=O)[C@H](CC(C)C)NC(=O)OCc1ccccc1 [MG132] (Cbz-Leu-Leu-Leu-aldehyde) | disease specific intracellular increase in α1-antitrypsin polymers | –
2 | glucagon hydrochloride | – | induction of expression of three canonical glucagon-responsive genes
